Test results from US20190008983A1, “EXTRACELLULAR DRUG CONJUGATES TARGETING CD20” (priority 2015, published 2019).
Where two headings read alike, the source gives them in different places.

Key:
[1] = test system: CD20 positive cell line SUDHL4; assay: Cell proliferation/cytotoxicity assay (CellTiter-Glo) on SUDHL4 cells; type: cell-based, Human; details: for EC50: read-out: EC50 in picoM, SUDHL4; for % viab., SUDHL4: figure in brackets after EC50
Method: (§1) These cell lines are the Ramos (Human Burkitt's lymphoma) and SUDHL4 (Non-Hodgkin lymphoma) cell lines. […] Cell viability was then analyzed using the CellTiter-Glo luminescent cell viability assay and standard package insert protocol of the manufacturer (Promega, Madison, Wis.).

[2] = test system: CD20 positive cell line Ramos; assay: Cell proliferation/cytotoxicity assay (CellTiter-Glo) on Ramos cells; type: cell-based, Human; details: for % viab., Ramos: figure in brackets after EC50; for % viab., Ramos / EC50: 72 hours incubation; for EC50: CellTiter-Glo, Tables 1-2, read-out: EC50 in picoM, Ramos
Method: as §1

[3] = 72 hours incubation, CellTiter-Glo, Tables 1-2

SMILES	EC50 [2]	EC50 [1, 3]	further results
C[C@]12CC[C@H](O)C[C@H]1CC[C@@H]1[C@@H]2CC[C@]2(C)[C@@H](c3ccc(=O)oc3)CC[C@]12O [Bufalin, reference compound]	–	–	EC50 ([1]; Homo sapiens, SU-DHL-4, 72 h): 16 nM
C[C@]12CC[C@H](OC3OC[C@H](N)[C@@H](O)[C@@H]3O)C=C1CC[C@@H]1[C@@H]2CC[C@]2(C)[C@@H](c3ccc(=O)oc3)CC[C@]12O (stereo partly shown) [CEN09-106]	–	–	% viab., Ramos [2]: 0%; activity on Ramos cells in FIG. 8 study ([2]; in the absence of complement, FIG. 8): significant but much less potent activity; % viab., SUDHL4 ([1]; 72 hours incubation): 0%
CC12CCC(OC(=O)N3CCNCC3)CC1CCC1C2CCC2(C)C(c3ccc(=O)oc3)CCC12O (stereo not shown) [CEN-371]	7.81 nM	11 nM	% viab., Ramos [2]: 0%; % viab., SUDHL4 ([1]; 72 hours incubation): 0%
CN(CCCN)CCCNC(=O)O[C@H]1CC[C@@]2(C)[C@H](CC[C@@H]3[C@@H]2CC[C@]2(C)[C@H](c4ccc(=O)oc4)CC[C@]32O)C1 [CEN-372]	3.6 nM	4.4 nM	–
C[C@]12CC[C@H](OC(=O)NCCCNCCCN)C[C@H]1CC[C@@H]1[C@@H]2CC[C@]2(C)[C@H](c3ccc(=O)oc3)CC[C@]12O [CEN-373]	4 nM	5.9 nM	–
C[C@]1(OC(=O)NCCCN2CCN(CCCN)CC2)CC[C@@]2(C)[C@H](CC[C@@H]3[C@@H]2CC[C@]2(C)[C@@](C)(C4=CC(=O)OC4)CC[C@]32O)C1 [CEN-381]	> 50 nM	> 50 nM	–
C[C@]12CC[C@H](O)C[C@H]1CC[C@@H]1[C@@H]2CC[C@]2(C)[C@@H](C3=CC(=O)OC3)CC[C@]12O [Digitoxigenin, reference compound]	–	–	EC50 ([1]; Homo sapiens, SU-DHL-4, 72 h): > 50 nM
C[C@]12CC[C@H](O)C=C1CC[C@@H]1[C@@H]2CC[C@]2(C)[C@@H](c3ccc(=O)oc3)CC[C@]12O [Scillarenin, reference compound]	–	–	EC50 ([1]; Homo sapiens, SU-DHL-4, 72 hours incubation, CellTiter-Glo, Tables 1-2): 18 nM
